Results on 18 molecules are retold here after patent US9751869B2, “LXR modulators” (BRISTOL-MYERS SQUIBB COMPANY, priority 2013, dated 2017).

pEC50: −log10 of the molar value.

For the assay, the target named is T1, LXRβ (Homo sapiens, UniProt P55055).
T1 construct: Co-transfection expression plasmids, comprising full-length LXRα (pCMX-h LXRα or LXRβ (pCMX-hLXRβ)); expressed in transfected cells; host or cells: CV-1 African green monkey kidney cells, transient transfection with pCMX-hLXRβ
T1 sequence (P55055 1-460): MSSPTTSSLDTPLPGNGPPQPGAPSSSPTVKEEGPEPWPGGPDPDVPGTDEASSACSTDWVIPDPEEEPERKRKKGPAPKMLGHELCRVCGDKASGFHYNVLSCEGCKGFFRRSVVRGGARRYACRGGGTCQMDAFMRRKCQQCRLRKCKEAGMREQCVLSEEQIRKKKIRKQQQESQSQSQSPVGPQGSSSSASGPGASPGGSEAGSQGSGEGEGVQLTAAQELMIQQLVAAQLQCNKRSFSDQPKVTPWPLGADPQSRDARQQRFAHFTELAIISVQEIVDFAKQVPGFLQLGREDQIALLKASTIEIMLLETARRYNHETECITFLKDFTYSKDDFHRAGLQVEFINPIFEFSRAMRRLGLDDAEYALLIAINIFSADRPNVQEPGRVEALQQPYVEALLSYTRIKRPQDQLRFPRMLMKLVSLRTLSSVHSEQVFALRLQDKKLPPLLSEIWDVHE
T1 sequence (P19793 1-462 partner): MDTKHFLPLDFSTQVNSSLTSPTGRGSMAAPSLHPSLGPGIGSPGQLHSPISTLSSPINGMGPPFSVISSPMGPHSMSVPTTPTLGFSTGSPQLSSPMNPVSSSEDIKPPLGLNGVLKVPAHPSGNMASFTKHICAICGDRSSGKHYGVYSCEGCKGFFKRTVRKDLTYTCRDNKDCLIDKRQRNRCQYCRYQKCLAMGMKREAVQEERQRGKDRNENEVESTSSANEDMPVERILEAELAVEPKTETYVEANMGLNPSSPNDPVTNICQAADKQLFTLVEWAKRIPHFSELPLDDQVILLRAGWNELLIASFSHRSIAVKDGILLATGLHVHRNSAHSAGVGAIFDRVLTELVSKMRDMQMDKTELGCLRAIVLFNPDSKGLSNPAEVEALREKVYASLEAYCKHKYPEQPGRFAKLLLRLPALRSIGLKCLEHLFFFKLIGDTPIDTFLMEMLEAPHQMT
Nature of the assay: LXR/LXRE co-transfection assay (luciferase reporter) in CV-1 cells, LXRβ. The class given is cell-based. Conditions: for pEC50: CV-1 cells transfected with pCMX-hLXRβ and LXREx1-Tk-Luciferase, 20 hours incubation, read-out: LXRbeta agonism EC50; for Emax: CV-1 cells, relative to maximum response of high control N-(3-((4-fluorophenyl)-(naphthalene-2-sulfonyl)amino)propyl)-2,2-dimethylpropionamide, read-out: LXRbeta % EFFICACY
The method, boiled down:
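Luciferase read-out after 20 h compound treatment at 37 °C of CV-1 cells carrying transfected hLXRβ plus one-copy LXRE reporter, endogenous RXR partnering. Sigmoidal fit of 10-point half-log curves (4 wells each) gave EC50; % efficacy versus maximal response of the propionamide reference agonist.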

`Cc1nc(-c2ccc(OC(F)(F)F)cc2)c(-c2cc(-c3cccc(S(C)(=O)=O)c3)ccc2-n2ccc(C(F)(F)F)n2)o1` [Example 309, 2-methyl-5-(3′-(methylsulfonyl)-4-(3-(trifluoromethyl)-1H-pyrazol-1-yl)-[1,1′-biphenyl]-3-yl)-4-(4-(trifluoromethoxy)phenyl)oxazole]: the pEC50 was 6.92 and the Emax is 68%.

On to `Cc1nc(-c2cc(-c3cccc(S(C)(=O)=O)c3)ccc2-n2cc(Cl)c(C(F)(F)F)n2)c(-c2ccc(OC(F)(F)F)cc2)o1` [Example 310, 4-(4-(4-chloro-3-(trifluoromethyl)-1H-pyrazol-1-yl)-3′-(methylsulfonyl)-[1,1′-biphenyl]-3-yl)-2-methyl-5-(4-(trifluoromethoxy)phenyl)oxazole], for which the pEC50 is 7.57 and the Emax was found to be 75%.

For the molecule `CCOc1cc(C(F)(F)F)nn1-c1ccc(-c2cccc(S(C)(=O)=O)c2)cc1-c1nc(C)oc1-c1ccc(OC(F)(F)F)cc1` [Example 311, 4-(4-(5-ethoxy-3-(trifluoromethyl)-1H-pyrazol-1-yl)-3′-(methylsulfonyl)biphenyl-3-yl)-2-methyl-5-(4-(trifluoromethoxy)phenyl)oxazole], the pEC50 is 6.10 and the Emax is 37%.

In the case of `Cc1nc(-c2cc(-c3cccc(S(C)(=O)=O)c3)ccc2-n2nc(C(F)(F)F)cc2C2CC2)c(-c2ccc(OC(F)(F)F)cc2)o1` [Example 312, 4-(4-(5-cyclopropyl-3-(trifluoromethyl)-1H-pyrazol-1-yl)-3′-(methylsulfonyl)biphenyl-3-yl)-2-methyl-5-(4-(trifluoromethoxy)phenyl)oxazole], the pEC50 is 6.10 and the Emax came out at 34%.

With `Cc1nc(-c2ccc(OC(F)(F)F)cc2)c(-c2cc(-c3cc(F)c(CO)c(S(C)(=O)=O)c3)ccc2-n2ccc(C(C)(F)F)n2)o1` [Example 313, (4′-(3-(1,1-difluoroethyl)-1H-pyrazol-1-yl)-3-fluoro-3′-(2-methyl-4-(4-(trifluoromethoxy)phenyl)oxazol-5-yl)-5-(methylsulfonyl)-[1,1′-biphenyl]-4-yl)methanol], the negative logarithm of the EC50 (pEC50) was 7.70 and the Emax was 59%.

Turning to `Cc1nc(-c2ccc(OC(F)(F)F)cc2)c(-c2cc(-c3cnc(CO)c(S(C)(=O)=O)c3)ccc2-n2cc(Cl)c(C(F)(F)F)n2)o1` [Example 314, (5-(4-(4-chloro-3-(trifluoromethyl)-1H-pyrazol-1-yl)-3-(2-methyl-4-(4-(trifluoromethoxy)phenyl)oxazol-5-yl)phenyl)-3-(methylsulfonyl)pyridin-2-yl)methanol], the pEC50 is 7.96 and the Emax worked out at 68%.

Regarding `Cc1nc(-c2ccc(OC(F)(F)F)cc2)c(-c2cc(-c3cc(F)c(CO)c(S(C)(=O)=O)c3)ccc2-n2ccc(C3CC3)n2)o1` [Example 315, (4′-(3-cyclopropyl-1H-pyrazol-1-yl)-3-fluoro-3′-(2-methyl-4-(4-(trifluoromethoxy)phenyl)oxazol-5-yl)-5-(methylsulfonyl)-[1,1′-biphenyl]-4-yl)methanol], the pEC50 is 7.15 and the Emax was 48%.

As to `Cc1nc(-c2ccc(OC(F)(F)F)cc2)c(-c2cc(-c3cccc(S(C)(=O)=O)c3)ccc2-n2ccc(C(C)(C)O)n2)o1` [Example 316, 2-(1-(3-(2-methyl-4-(4-(trifluoromethoxy)phenyl)oxazol-5-yl)-3′-(methylsulfonyl)biphenyl-4-yl)-1H-pyrazol-3-yl)propan-2-ol], the pEC50 is 6.53 and the Emax was found to be 24%.

`Cc1nc(-c2ccc(OC(F)(F)F)cc2)c(-c2cc(-c3cc(F)c(CO)c(S(C)(=O)=O)c3)ccc2-n2ccc(C(C)(C)O)n2)o1` [Example 317, 2-(1-(3′-fluoro-4′-(hydroxymethyl)-3-(2-methyl-4-(4-(trifluoromethoxy)phenyl)oxazol-5-yl)-5′-(methylsulfonyl)biphenyl-4-yl)-1H-pyrazol-3-yl)propan-2-ol]: the negative logarithm of the EC50 (pEC50) was 7.04 and the Emax turned out to be 27%.

Take `Cc1nc(-c2ccc(OC(F)(F)F)cc2)c(-c2cc(-c3cccc(S(C)(=O)=O)c3)ccc2-n2ccc(C#N)n2)o1` [Example 318, 1-(3-(2-methyl-4-(4-(trifluoromethoxy)phenyl)oxazol-5-yl)-3′-(methylsulfonyl)biphenyl-4-yl)-1H-pyrazole-3-carbonitrile]: the pEC50 is 6.61 and the Emax is 84%.

Turning to `Cc1nc(-c2ccc(OC(F)(F)F)cc2)c(-c2cc(-c3cc(F)c(CO)c(S(C)(=O)=O)c3)ccc2-n2ccc(C#N)n2)o1` [Example 319, 1-(3′-fluoro-4′-(hydroxymethyl)-3-(2-methyl-4-(4-(trifluoromethoxy)phenyl)oxazol-5-yl)-5′-(methylsulfonyl)biphenyl-4-yl)-1H-pyrazole-3-carbonitrile], the pEC50 was 7.15 and the Emax stood at 80%.

For `Cc1nc(-c2ccc(OC(F)(F)F)cc2)c(-c2cc(-c3cc(F)c(CO)c(S(C)(=O)=O)c3)ccc2-n2ccc(C(N)=O)n2)o1` [Example 320, 1-(3′-fluoro-4′-(hydroxymethyl)-3-(2-methyl-4-(4-(trifluoromethoxy)phenyl)oxazol-5-yl)-5′-(methylsulfonyl)biphenyl-4-yl)-1H-pyrazole-3-carboxamide], the pEC50 was 6.33 and the Emax worked out at 58%.

On to `Cc1nc(-c2ccc(OC(F)(F)F)cc2)c(-c2cc(-c3cccc(S(C)(=O)=O)c3)ccc2-n2ccc(CO)n2)o1` [Example 321, (1-(3-(2-methyl-4-(4-(trifluoromethoxy)phenyl)oxazol-5-yl)-3′-(methylsulfonyl)biphenyl-4-yl)-1H-pyrazol-3-yl)methanol], for which the pEC50 was 5.84 and the Emax was 40%.

`Cc1nc(-c2ccc(OC(F)(F)F)cc2)c(-c2cc(-c3cc(F)c(CO)c(S(C)(=O)=O)c3)ccc2-n2ccc(CO)n2)o1` [Example 322, (3-fluoro-4′-(3-(hydroxymethyl)-1H-pyrazol-1-yl)-3′-(2-methyl-4-(4-(trifluoromethoxy)phenyl)oxazol-5-yl)-5-(methylsulfonyl)biphenyl-4-yl)methanol]: the negative-log EC50 (pEC50) was 5.95 and the Emax stood at 58%.

For `Cc1nc(-c2ccc(OC(F)(F)F)cc2)c(-c2cc(-c3cc(F)c(CO)c(S(C)(=O)=O)c3)ccc2-n2nc(C(F)(F)F)cc2C2CC2)o1` [Example 323, (4′-(5-cyclopropyl-3-(trifluoromethyl)-1H-pyrazol-1-yl)-3-fluoro-3′-(2-methyl-4-(4-(trifluoromethoxy)phenyl)oxazol-5-yl)-5-(methylsulfonyl)biphenyl-4-yl)methanol], the pEC50 is 6.02 and the Emax came to 48%.

On to `Cc1nc(-c2ccc(OC(F)(F)F)cc2)c(-c2cc(-c3cccc(S(C)(=O)=O)c3)ccc2-n2nc(C(F)(F)F)cc2C2CC2)o1` [Example 324, 5-(4-(5-cyclopropyl-3-(trifluoromethyl)-1H-pyrazol-1-yl)-3′-(methylsulfonyl)biphenyl-3-yl)-2-methyl-4-(4-(trifluoromethoxy)phenyl)oxazole], for which the pEC50 is 5.91 and the Emax came out at 44%.

In the case of `Cc1nc(-c2ccc(OC(F)F)cc2)c(-c2cc(-c3cc(F)c(CO)c(S(C)(=O)=O)c3)ccc2-n2nc(C(F)(F)F)cc2C)o1` [Example 325, (3′-(4-(4-(difluoromethoxy)phenyl)-2-methyloxazol-5-yl)-3-fluoro-4′-(5-methyl-3-(trifluoromethyl)-1H-pyrazol-1-yl)-5-(methylsulfonyl)biphenyl-4-yl) methanol], the negative-log EC50 (pEC50) was 7.92 and the Emax was determined as 78%.

Take `Cc1nc(-c2ccc(OC(F)F)cc2)c(-c2cc(-c3ccc(CO)c(S(C)(=O)=O)c3)ccc2-n2nc(C(F)(F)F)cc2C)o1` [Example 326, (3′-(4-(4-(difluoromethoxy)phenyl)-2-methyloxazol-5-yl)-4′-(5-methyl-3-(trifluoromethyl)-1H-pyrazol-1-yl)-3-(methylsulfonyl)biphenyl-4-yl)methanol]: the pEC50 was 7.82 and the Emax worked out at 77%.
